Source: patent US20230270711A1, “Improved Anti-Hangover Composition, Its Preparation and Uses” (Zobrius Pharma AS, priority 2019, published 2023)

Assays:
LADH = details: read-out: Ki, inhibition of LADH; cited from earlier work
alcohol metabolism = assay: Clinical Study Protocol: alcohol metabolism from BAC (CA 2000 Digital Alcohol Detector), Examples 1 and 2; type: in vivo, human; details: in the 500 ml Composition A (90 g fructose)
Protocol: Clinical Study Protocol—The studies presented in Examples 1 and 2 were carried out with 10 individuals (6 males and 4 females, aged 24-57 years).
In the control study (using water alone as the after-alcohol drink), the test persons were given 8 oz. (ca.2.4 dl) of vodka mixed with 6 dl Sprite® (The Coca Cola Company). The alcohol was consumed within one hour. At a given time, 30-60 minutes after alcohol consumption, each person drank a given volume of water (control composition). The alcohol level was then measured as described below.
One week later, a second study was carried out, wherein the same test persons were given the same amounts of vodka and Sprite®, respectively. At the given time after alcohol consumption, each test person drank the given volume of a test composition. The alcohol level was then measured as described just below.
Blood alcohol concentration (BAC) was measured, using a CA 2000 Digital Alcohol Detector, once every 30 minutes in each experiment. Each value is an average of four parallel measurements. Evaluation of effect against hangover was graded on a scale from 1-10 (where 10 represents the greatest effect).
The study protocol was carried out as described above, wherein the test composition comprised Comparative Composition A (defined below); the given time was 45 minutes; and the given volume was 500 ml. […]

| Compound | Ki (LADH) | Contribution of fructose to the acceleration of alcohol degradation (alcohol metabolism) |
| --- | --- | --- |
| NC(=O)C1=CN([C@@H]2O[C@H](COP(=O)(O)OP(=O)(O)OC[C@H]3O[C@@H](n4cnc5c(N)ncnc54)[C@H](O)[C@@H]3O)[C@@H](O)[C@H]2O)C=CC1 [NADH] | 56 µM | – |
| O=C(CO)[C@@H](O)[C@H](O)[C@H](O)CO [fructose] | – | 20-25% |
